Experimental data as given in patent publication US20210275419A1, “Personal Care Compositions” (Colgate-Palmolive Company, priority 2020, published 2021).

Tested on: tyrosinase
Test: tyrosinase inhibitor screening kit (Sigma Aldrich, MAK 257 Kit)
Format: biochemical
Conditions: Example 4; 0.156 wt. %
Protocol: (§1) The anti-tyrosinase activity of an exemplary composition of the present invention was compared to the anti-tyrosinase activity of individual short chain fatty acids. Assays were performed using a tyrosinase inhibitor screening kit from Sigma Aldrich; and following the manufacturer's protocol. The results of these experiments are described in Table 1 (below).
as §1, with “Aldrich (MAK 257 Kit);” for “Aldrich;”, “4” for “1”, “(below). […]” for “(below).”
Peels were diluted 1000× in buffer to prepare 0.1% working stock. […] The pH of all test samples and dilutions was measured before and after tyrosinase assay to exclude any effect of acid on the enzyme activity. […] LMP peels containing various concentrations of pyruvic acid at pH 2.5 (“R1 Peels”); LMP peels which were identically formulated to the R1 Peels, but with pH buffered to 3.6 (“R2 Peels”); and LMP′ peels which were identically formulated to the R2 Peels, other than the replacement of pyruvic acid with sodium pyruvate (“R3 Peels”), were all evaluated.

% Tyrosinase Inhibition: 0.06%
SMILES: O=C(O)C(O)c1ccccc1 (stereo not shown) [Mandelic Acid (M), Mandelic Acid]
